US11840533B2, “Pyridinone-based epigenetic modifiers and uses thereof” (THE BOARD OF TRUSTEES OF THE UNIVERSITY OF ILLINOIS, priority 2017, dated 2023)
One block for each compound: values may come before it.

Experiments:
[1] = test system: fulvestrant-resistant MCF7:5C-FR cells; assay: Fulvestrant-resistant breast cancer cell viability (cell proliferation) assay; assay type: cell-based; details: for IC50: growth inhibition in fulvestrant-resistant MCF-7:CFR cells, 120 hrs
Procedure, shortened: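 Cells were treated the day after seeding with compounds at 3 nM to 10 uM for 120 h, with 0.1% DMSO vehicle and 1 uM JQ1 as positive control. Hoechst 33342-stained (5 μg/ml, 90 min, 37 C) nuclei were imaged and counted, and cell numbers normalized to vehicle.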

BRD4 bromodomain 1 = BRD4 bromodomain 1 (Homo sapiens (Human), UniProt O60885); assay: TR-FRET BRD4 binding assay, bromodomain 1; details: read-out: TR-FRET BRD4-BD1 Ki
Experimental: (§1) Briefly, compounds were serial diluted into the 1×TR-FRET Assay Buffer with no more than 8% DMSO, and the final concentration tested was distributed from […] to 10 uM with no more than 2% DMSO. (+)JQ-1 was used as positive control. […] Then the reconstituted BRD4 bromodomain ligand/APC Acceptor Mixture were added to every well and incubate for 1 hr at room temperature. The plate was sealed with adhesive aluminum seal to prevent photobleaching. Then the plate was read in time-resolved format by exiting the well at 340 nm and reading emmission at 620 and 670 nm, using 100 us delay and 500 us read window. Data analysis was performed using the TR-FRET ratio which is the 670 nm emission/620 nm emission.

BRD4 bromodomain 2 = BRD4 bromodomain 2 (Homo sapiens (Human), UniProt O60885); assay: TR-FRET BRD4 binding assay, bromodomain 2; details: read-out: TR-FRET BRD4-BD2 Ki
Experimental: as §1

[2] = test system: 3D spheroids of fulvestrant-resistant MCF-7:CFR; assay: Growth of 3D spheroids of fulvestrant-resistant MCF-7:CFR; assay type: cell-based; details: FIG. 11; vs JQ1 and AZD-5153
BAZ2A = BAZ2A (Homo sapiens (Human), UniProt Q9UIF9); assay: BROMOscan; assay type: binding
Chain of BAZ2A (Q9UIF9 whole entry): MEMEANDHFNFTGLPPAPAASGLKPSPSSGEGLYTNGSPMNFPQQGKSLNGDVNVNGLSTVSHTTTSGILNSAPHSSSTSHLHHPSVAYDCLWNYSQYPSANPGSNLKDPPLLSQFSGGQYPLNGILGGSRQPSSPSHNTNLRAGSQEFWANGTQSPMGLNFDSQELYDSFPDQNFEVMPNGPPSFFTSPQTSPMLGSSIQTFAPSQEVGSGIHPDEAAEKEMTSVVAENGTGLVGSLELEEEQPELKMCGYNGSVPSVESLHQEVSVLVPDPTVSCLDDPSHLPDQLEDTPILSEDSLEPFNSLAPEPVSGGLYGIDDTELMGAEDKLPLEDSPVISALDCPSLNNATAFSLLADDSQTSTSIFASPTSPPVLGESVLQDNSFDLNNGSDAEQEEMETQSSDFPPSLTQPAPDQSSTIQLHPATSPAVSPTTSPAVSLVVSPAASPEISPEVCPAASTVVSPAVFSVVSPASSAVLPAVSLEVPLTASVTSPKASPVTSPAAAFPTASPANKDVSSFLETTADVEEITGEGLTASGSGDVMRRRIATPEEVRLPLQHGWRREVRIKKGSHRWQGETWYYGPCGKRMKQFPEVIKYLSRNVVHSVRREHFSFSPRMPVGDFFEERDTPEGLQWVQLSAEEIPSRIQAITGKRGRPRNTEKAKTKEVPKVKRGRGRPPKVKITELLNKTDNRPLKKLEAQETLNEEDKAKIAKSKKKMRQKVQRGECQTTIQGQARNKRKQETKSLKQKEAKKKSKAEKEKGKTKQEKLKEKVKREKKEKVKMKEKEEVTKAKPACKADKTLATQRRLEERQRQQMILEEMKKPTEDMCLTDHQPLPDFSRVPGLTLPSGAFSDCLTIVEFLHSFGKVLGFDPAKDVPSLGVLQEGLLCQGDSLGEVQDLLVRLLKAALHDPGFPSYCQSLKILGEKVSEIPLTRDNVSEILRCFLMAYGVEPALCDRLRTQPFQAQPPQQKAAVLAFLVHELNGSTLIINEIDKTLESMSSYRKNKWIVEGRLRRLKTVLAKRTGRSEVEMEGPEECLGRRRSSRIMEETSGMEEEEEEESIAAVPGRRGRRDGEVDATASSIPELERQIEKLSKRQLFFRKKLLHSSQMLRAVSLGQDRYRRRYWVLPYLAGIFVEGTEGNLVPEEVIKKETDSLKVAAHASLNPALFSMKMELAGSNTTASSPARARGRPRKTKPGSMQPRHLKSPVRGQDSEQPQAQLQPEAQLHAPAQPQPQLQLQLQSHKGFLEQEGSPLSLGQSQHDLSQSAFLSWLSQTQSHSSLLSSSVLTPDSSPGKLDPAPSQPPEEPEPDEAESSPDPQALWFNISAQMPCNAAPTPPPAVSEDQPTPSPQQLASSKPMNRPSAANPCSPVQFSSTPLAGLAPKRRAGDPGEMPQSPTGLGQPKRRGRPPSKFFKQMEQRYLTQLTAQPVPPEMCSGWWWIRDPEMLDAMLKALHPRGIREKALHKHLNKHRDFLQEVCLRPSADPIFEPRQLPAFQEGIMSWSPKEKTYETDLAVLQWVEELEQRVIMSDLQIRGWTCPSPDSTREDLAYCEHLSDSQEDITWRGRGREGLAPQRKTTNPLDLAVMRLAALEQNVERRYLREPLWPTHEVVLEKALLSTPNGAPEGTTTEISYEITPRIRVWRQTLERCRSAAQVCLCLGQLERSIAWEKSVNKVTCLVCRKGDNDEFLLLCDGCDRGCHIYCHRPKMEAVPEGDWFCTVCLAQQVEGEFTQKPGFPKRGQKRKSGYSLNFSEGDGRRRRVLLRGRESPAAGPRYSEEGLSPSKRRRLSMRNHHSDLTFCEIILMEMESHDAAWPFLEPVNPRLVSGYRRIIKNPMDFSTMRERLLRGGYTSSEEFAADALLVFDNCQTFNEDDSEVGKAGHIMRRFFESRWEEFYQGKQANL
Text: (§2) BROMOscan is a bromodomain inhibitor binding platform provided by DiscoverX that measures the interactions between compounds and a panel of bromodomain proteins.

BRD1 = BRD1 (Homo sapiens (Human), UniProt O95696); assay: BROMOscan; assay type: binding
Text: as §2

BRD2(1) = BRD2(1) (Homo sapiens (Human), UniProt P25440); assay: BROMOscan; assay type: binding
Text: as §2

BRD2(1, 2) = BRD2(1, 2) (Homo sapiens (Human), UniProt P25440); assay: BROMOscan; assay type: binding
Chain of BRD2(1, 2) (P25440 71-455): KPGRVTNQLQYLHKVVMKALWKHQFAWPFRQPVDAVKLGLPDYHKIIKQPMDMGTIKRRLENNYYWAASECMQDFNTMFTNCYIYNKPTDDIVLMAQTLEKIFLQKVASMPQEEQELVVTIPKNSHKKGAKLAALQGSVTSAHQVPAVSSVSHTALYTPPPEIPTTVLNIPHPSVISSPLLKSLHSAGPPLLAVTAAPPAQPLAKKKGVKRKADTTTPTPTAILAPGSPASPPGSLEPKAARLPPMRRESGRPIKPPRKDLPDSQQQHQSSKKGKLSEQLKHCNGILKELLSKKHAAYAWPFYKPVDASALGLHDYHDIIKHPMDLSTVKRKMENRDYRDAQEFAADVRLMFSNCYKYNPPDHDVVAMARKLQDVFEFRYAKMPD
Text: as §2

BRD2(2) = BRD2(2) (Homo sapiens (Human), UniProt P25440); assay: BROMOscan; assay type: binding
Chain of BRD2(2) (P25440 344-453): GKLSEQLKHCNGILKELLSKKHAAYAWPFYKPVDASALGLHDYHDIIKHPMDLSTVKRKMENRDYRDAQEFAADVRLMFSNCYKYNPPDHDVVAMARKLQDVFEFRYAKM
Text: as §2

BRD3(1) = BRD3(1) (Homo sapiens (Human), UniProt Q15059); assay: BROMOscan; assay type: binding
Text: as §2

BRD3(1, 2) = BRD3(1, 2) (Homo sapiens (Human), UniProt Q15059); assay: BROMOscan; assay type: binding
Text: as §2

BRD3(2) = BRD3(2) (Homo sapiens (Human), UniProt Q15059); assay: BROMOscan; assay type: binding
Text: as §2

BRD8(1) = BRD8(1) (Homo sapiens (Human), UniProt Q9H0E9); assay: BROMOscan; assay type: binding
Chain of BRD8(1) (Q9H0E9 706-811): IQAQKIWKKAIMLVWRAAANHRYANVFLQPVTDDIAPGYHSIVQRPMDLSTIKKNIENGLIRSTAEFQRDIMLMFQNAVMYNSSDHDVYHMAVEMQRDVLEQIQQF
Text: as §2

BRD9 = BRD9 (Homo sapiens (Human), UniProt Q9H8M2); assay: BROMOscan; assay type: binding
Text: as §2

BRDT(1) = BRDT(1) (Homo sapiens (Human), UniProt Q58F21); assay: BROMOscan; assay type: binding
Text: as §2

BRDT(1, 2) = BRDT(1, 2) (Homo sapiens (Human), UniProt Q58F21); assay: BROMOscan; assay type: binding
Text: as §2

BRDT(2) = BRDT(2) (Homo sapiens (Human), UniProt Q58F21); assay: BROMOscan; assay type: binding
Text: as §2

BRPF1 = BRPF1 (Homo sapiens (Human), UniProt P55201); assay: BROMOscan; assay type: binding
Text: as §2

CECR2 = CECR2 (Homo sapiens (Human), UniProt Q9BXF3); assay: BROMOscan; assay type: binding
Text: as §2

CREBBP = CREBBP (Homo sapiens (Human), UniProt Q92793); assay: BROMOscan; assay type: binding
Text: as §2

EP300 = EP300 (Homo sapiens (Human), UniProt Q09472); assay: BROMOscan; assay type: binding
Chain of EP300 (Q09472 whole entry): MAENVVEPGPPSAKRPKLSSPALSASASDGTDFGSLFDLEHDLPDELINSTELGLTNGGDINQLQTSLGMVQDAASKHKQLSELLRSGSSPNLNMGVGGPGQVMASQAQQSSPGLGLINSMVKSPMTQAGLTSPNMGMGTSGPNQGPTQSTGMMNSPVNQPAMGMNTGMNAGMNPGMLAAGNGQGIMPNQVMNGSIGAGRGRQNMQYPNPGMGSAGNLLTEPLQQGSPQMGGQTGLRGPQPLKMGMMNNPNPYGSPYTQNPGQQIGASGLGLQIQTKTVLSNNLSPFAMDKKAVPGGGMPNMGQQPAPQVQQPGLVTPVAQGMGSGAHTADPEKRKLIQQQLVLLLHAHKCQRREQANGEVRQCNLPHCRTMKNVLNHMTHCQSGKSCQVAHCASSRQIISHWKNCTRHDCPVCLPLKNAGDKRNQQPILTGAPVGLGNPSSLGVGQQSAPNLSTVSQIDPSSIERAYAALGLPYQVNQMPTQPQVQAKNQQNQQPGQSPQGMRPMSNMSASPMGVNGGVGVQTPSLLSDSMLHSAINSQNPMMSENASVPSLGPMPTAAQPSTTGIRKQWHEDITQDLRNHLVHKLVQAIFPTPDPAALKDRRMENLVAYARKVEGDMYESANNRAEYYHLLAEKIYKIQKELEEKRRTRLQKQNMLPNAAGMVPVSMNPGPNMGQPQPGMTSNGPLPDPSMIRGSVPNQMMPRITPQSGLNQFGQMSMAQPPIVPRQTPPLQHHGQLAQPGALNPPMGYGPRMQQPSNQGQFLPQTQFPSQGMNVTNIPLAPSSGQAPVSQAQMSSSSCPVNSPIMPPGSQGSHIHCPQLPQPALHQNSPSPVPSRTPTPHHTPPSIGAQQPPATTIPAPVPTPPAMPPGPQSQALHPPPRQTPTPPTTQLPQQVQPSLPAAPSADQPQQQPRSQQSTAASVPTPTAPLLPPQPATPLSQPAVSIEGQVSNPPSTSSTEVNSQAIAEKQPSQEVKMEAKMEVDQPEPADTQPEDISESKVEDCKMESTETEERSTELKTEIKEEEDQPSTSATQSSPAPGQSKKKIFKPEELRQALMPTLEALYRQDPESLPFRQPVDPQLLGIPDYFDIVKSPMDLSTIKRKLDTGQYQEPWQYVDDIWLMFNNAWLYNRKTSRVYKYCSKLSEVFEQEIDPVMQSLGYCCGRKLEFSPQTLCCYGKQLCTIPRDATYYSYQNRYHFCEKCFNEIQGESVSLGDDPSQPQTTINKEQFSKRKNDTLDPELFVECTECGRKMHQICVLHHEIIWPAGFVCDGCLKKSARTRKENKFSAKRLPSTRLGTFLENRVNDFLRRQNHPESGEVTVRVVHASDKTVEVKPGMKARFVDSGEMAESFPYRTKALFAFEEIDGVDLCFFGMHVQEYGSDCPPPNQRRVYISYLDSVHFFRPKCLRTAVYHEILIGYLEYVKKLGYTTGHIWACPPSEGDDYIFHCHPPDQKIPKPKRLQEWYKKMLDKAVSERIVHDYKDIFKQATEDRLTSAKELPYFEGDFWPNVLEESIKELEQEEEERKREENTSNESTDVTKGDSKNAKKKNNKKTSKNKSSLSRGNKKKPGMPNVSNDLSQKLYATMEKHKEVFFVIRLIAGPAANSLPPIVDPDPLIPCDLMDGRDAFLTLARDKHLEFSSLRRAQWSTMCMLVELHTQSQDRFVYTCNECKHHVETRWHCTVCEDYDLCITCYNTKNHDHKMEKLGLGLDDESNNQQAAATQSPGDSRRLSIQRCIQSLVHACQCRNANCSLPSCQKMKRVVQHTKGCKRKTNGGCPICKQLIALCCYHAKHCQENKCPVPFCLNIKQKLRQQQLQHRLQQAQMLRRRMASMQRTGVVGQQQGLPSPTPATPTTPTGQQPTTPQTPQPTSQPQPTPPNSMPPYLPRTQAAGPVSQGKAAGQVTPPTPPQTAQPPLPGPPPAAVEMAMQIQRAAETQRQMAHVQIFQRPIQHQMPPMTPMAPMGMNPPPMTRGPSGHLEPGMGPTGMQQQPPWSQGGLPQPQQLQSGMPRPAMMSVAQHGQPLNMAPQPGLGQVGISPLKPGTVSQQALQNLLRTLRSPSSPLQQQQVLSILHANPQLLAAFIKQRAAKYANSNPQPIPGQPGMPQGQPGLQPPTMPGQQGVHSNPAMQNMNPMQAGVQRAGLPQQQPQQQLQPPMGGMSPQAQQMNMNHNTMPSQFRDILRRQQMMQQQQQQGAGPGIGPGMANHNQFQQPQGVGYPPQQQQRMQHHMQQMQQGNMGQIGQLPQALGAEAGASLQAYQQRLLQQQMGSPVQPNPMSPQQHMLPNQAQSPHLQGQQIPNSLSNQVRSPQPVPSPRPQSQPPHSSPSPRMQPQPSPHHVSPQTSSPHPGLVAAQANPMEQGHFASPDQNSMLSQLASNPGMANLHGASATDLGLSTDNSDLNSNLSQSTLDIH
Text: as §2

PBRM1(5) = PBRM1(5) (Homo sapiens (Human), UniProt Q86U86); assay: BROMOscan; assay type: binding
Text: as §2

TAF1(2) = TAF1(2) (Homo sapiens (Human), UniProt P21675); assay: BROMOscan; assay type: binding
Chain of TAF1(2) (P21675 1519-1628): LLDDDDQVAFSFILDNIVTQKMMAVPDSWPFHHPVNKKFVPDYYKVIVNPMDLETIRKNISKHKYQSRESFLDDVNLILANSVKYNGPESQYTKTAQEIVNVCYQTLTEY
Text: as §2

TAF1L(2) = TAF1L(2) (Homo sapiens (Human), UniProt Q8IZX4); assay: BROMOscan; assay type: binding
Chain of TAF1L(2) (Q8IZX4 1517-1626): as the sequence (P21675 1519-1628) above, with V46M, M51V, V102I, L107I counted along it
Text: as §2

TRIM24(Bromo.) = TRIM24(Bromo.) (Homo sapiens (Human), UniProt O15164); assay: BROMOscan; assay type: binding
Text: as §2

BET family proteins = assay: BROMOscan panel of bromodomain proteins; assay type: binding; details: FIG. 6
Text: as §2

IC50 ([1]; 120 h): 17 nM
Ki (BRD4 bromodomain 1): < 100 nM
Ki (BRD4 bromodomain 2): < 100 nM
Compound: Cn1cc(-c2cc(NS(C)(=O)=O)c3ccn(Cc4ccc(F)cc4)c3c2)c2ccnc(O)c21 [Compound 23, N-(1-(4-fluorobenzyl)-6-(7-hydroxy-1-methyl-1H-pyrrolo[2,3-c]pyridin-3-yl)-1-indol-4-yl)methanesulfonamide]

IC50 ([1]; 120 h): 40 nM
Ki (BRD4 bromodomain 1): < 100 nM
Ki (BRD4 bromodomain 2): < 100 nM
Compound: Cn1cc(-c2cc(NS(C)(=O)=O)c3cnn(Cc4ccc(F)cc4)c3c2)c2ccnc(O)c21 [Compound 30, N-(1-(4-fluorobenzyl)-6-(7-hydroxy-1-methyl-1H-pyrrolo[2,3-c]pyridin-3-yl)-1H-indazol-4-yl)methanesulfonamide]

IC50 ([1]; 120 h): 15 nM
Ki (BRD4 bromodomain 1): < 100 nM
Ki (BRD4 bromodomain 2): < 100 nM
Compound: CCS(=O)(=O)Nc1cc(-c2cn(C)c3c(O)nccc23)cc2c1cnn2Cc1ccc(F)cc1 [Compound 31, N-(1-(4-fluorobenzyl)-6-(7-hydroxy-1-methyl-1H-pyrrolo[2,3-c]pyridin-3-yl)-1H-indazol-4-yl)ethanesulfonamide]

IC50 ([1]; 120 h): 0.9 nM
Kd (BAZ2A): 3500 nM
Kd (BRD1): 7700 nM
Kd (BRD2(1)): 0.27 nM
Kd (BRD2(1, 2)): 0.57 nM
Kd (BRD2(2)): 0.77 nM
Kd (BRD3(1)): 0.34 nM
Kd (BRD3(1, 2)): 0.27 nM
Kd (BRD3(2)): 0.61 nM
Kd (BRD8(1)): 4900 nM
Kd (BRD9): 3500 nM
Kd (BRDT(1)): 0.14 nM
Kd (BRDT(1, 2)): 0.23 nM
Kd (BRDT(2)): 1.4 nM
Kd (BRPF1): 360 nM
Kd (CECR2): 6000 nM
Kd (CREBBP): 110 nM
Kd (EP300): 37 nM
Kd (PBRM1(5)): 6100 nM
Kd (TAF1(2)): 9.1 nM
Kd (TAF1L(2)): 44 nM
Kd (TRIM24(Bromo.)): 4400 nM
binding affinity for BET family (BET family proteins): subnanomolar potency
Compound: CCS(=O)(=O)Nc1cc(-c2cn(C)c3c(=O)[nH]ccc23)cc2c1ccn2C(C)(c1ccccn1)c1ccccn1 [Compound 70]
growth inhibition in comparison with clinical benchmark BET inhibitors ([1]; FIG. 10, vs BMS-98615, ABBV-075, AVR-771, AZD-5153, I-BET-762 and JQ1): superior potency
efficacy in inhibiting the growth of 3D spheroids [2]: more efficacious than JQ1 and AZD-5153

IC50 ([1]; 120 h): 10 nM
Ki (BRD4 bromodomain 1): < 10 nM
Ki (BRD4 bromodomain 2): < 10 nM
Compound: CC(=O)Nc1cc(-c2cn(C)c3c(=O)[nH]ccc23)cc2c1ccn2C(C)(c1ccccn1)c1ccccn1 [Compound 71, N-(1-(1,1-di(pyridin-2-yl)ethyl)-6-(1-methyl-7-oxo-6,7-dihydro-1H-pyrrolo[2,3-c]pyridin-3-yl)-1H-indol-4-yl)acetamide]

IC50 ([1]; 120 h): 20 nM
Ki (BRD4 bromodomain 1): < 10 nM
Ki (BRD4 bromodomain 2): < 10 nM
Compound: Cn1cc(-c2cc(C(C)(C)O)c3ccn(C(C)(c4ccccn4)c4ccccn4)c3c2)c2cc[nH]c(=O)c21 [Compound 72, 3-(1-(1,1-di(pyridin-2-yl)ethyl)-4-(2-hydroxypropan-2-yl)-1H-indol-6-yl)-1-methyl-1H-pyrrolo[2,3-c]pyridin-7(6H)-one]

IC50 ([1]; 120 h): 13 nM
Compound: Cn1cc(-c2cc(NS(C)(=O)=O)c3ccn(C(C)(c4ccccn4)c4ccccn4)c3c2)c2cc[nH]c(=O)c21 [Compound 132, N-(1-(1,1-di(pyridin-2-yl)ethyl)-6-(1-methyl-7-oxo-6,7-dihydro-1H-pyrrolo[2,3-c]pyridin-3-yl)-1H-indol-4-yl)methanesulfonamide]

IC50 [1]: < 100 nM
Compound: N-(1-benzhydryl-6-(1-methyl-7-oxo-6,7-dihydro-1H-pyrrolo[2,3-c]pyridin-3-yl)-1H-indol-4-yl)ethanesulfonamide [Compound 130]
